The source of these data is patent US12678412B2, “Substituted tolans for the modulation of microbial colonization” (BioMendics, LLC, priority 2017, dated 2026).

The subject of this assay is Methicillin Resistant Staphylococcus aureus (MRSA USA 300). The assay is described as follows: Colony forming assay, spread plate, MRSA USA 300. In kind it is cell-based. Particulars: for Reduction of MRSA USA 300 counts: 24 h. The procedure:
A fresh culture of pathogenic isolate was used in these examples. The bacterial strains used were Methicillin Resistant Staphylococcus aureus (MRSA USA 300), Pseudomonas aeruginosa ATCC 27312, and Candida albicans ATCC 64550.
FIG. 5 illustrates the spread plate method used in these examples. In sum, agar plates were made, bacteria were diluted to 10^6 or 10^8 CFU/mL, bacteria and drug were mixed together and then plated. Glass spreading beads were used because they give a better bacterial spread. Plates were incubated for 24 hrs then the colonies that formed were counted.
Proliferating cultures of Methicillin Resistant Staphylococcus aureus (MRSA, USA 300) were used in a colony forming assay. Freeze-dried bacteria culture of MRSA was recovered by swabbing a 3-cm diameter growth area and resuspending it to obtain a final inoculum suspension of approximately 10^8 CFU/mL. The concentration was confirmed using historical optical density measurements. The total compound BM3103 was suspended in a 70% v/v alcohol gel formulation (Formulation A) before the introduction of bacteria, with the vehicle consisting of solely the 70% v/v alcohol gel. MRSA at 10^8 CFU/mL was challenged with equal parts of a high, medium, and low dose of BM3103, vehicle formulation, positive control (Tobramycin, 600 μg/mL), or untreated control (phosphate buffered saline). The inoculum was plated on Tryptic Soy Broth plates at 37° C. for 24 h. Plates were photographed and counted. The treatment for each experiment was done in triplicate, and the experiment was repeated three times, for a total of 9 plates per group.
Colony counts for each treatment were tabulated and the Log of the colony forming units/mL (Log CFU/mL) was determined. The mean and standard deviation of the Log CFU/mL were calculated for each treatment. A one-way analysis of variance was performed at a 95% confidence interval.

On to `COc1ccc(C#Cc2ccc(O)cc2)cc1` [BM3103, 4-hydroxy-4′-methoxytolan], for which the “Reduction in MRSA USA 300 counts compared to the positive control” value (all three doses (0.05, 0.25, 0.5% w/v) vs Tobramycin 600 μg/mL) is “significantly greater reduction”. For the same molecule, the “Reduction of MRSA USA 300 counts” value (high dose 0.5% w/v, 22 mM, alcohol gel) is “approximately 8 fold”; the “Reduction of MRSA USA 300 counts” value (low dose 0.05% w/v, 2 mM, 70% v/v alcohol gel (Formulation A), compared to vehicle and untreated controls) is given as “over 6 fold”; the “Reduction of MRSA USA 300 counts” value (medium dose 0.25% w/v, 11 mM, alcohol gel, compared to vehicle and untreated control) came out at 7 fold.
